Target: T1, soybean lipoxygenase (Glycine max, UniProt P08170)
T1 construct: gene LOX1.1
T1 sequence (P08170 1-839): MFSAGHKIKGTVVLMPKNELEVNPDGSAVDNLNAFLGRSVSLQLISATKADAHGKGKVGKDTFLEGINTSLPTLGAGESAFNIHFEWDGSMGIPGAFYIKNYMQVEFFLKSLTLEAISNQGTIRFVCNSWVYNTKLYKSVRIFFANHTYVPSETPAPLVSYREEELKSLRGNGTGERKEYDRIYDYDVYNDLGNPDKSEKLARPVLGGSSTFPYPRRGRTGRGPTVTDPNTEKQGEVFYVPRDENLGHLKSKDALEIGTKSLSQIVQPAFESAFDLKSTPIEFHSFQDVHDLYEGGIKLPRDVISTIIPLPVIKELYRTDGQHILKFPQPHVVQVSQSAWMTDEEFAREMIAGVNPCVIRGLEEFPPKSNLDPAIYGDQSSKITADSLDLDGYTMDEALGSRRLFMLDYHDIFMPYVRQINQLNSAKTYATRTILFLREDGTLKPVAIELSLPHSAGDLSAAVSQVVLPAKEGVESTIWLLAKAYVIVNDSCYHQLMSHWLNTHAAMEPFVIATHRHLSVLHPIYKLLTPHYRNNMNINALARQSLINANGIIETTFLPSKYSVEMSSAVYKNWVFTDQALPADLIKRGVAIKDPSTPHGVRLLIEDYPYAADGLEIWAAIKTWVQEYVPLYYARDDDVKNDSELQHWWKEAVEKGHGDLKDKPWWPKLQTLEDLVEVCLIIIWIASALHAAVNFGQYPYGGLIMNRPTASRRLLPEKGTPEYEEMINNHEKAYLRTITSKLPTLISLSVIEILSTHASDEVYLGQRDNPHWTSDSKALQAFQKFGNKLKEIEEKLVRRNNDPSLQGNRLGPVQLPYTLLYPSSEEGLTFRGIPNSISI
Assay: UV assay at […] nm of sodium linoleate oxidation by soybean lipoxygenase (Sigma)
Assay type: biochemical
Conditions: read-out: % Inhibition of LOX 100 μM or IC50 (μM) *

SMILES | IC50 [µM]
O=Nc1c(NC(=O)/C=C/c2cccs2)[nH]c(N2CCCCC2)nc1=O [compound 5, (E)-N-(5-nitroso-6-oxo-2-(piperidin-1-yl)-3,6-dihydropyrimidin-4-yl)-3-(thiophen-2-yl)acrylamide] | 10.7
O=Nc1c(NC(=O)/C=C/c2cccc3ccccc23)[nH]c(N2CCCCC2)nc1=O [compound 9, (E)-3-(naphthalen-1-yl)-N-(5-nitroso-6-oxo-2-(piperidin-1-yl)-3,6-dihydropyrimidin-4-yl)acrylamide] | 1.1

From PMC10974930, “Synthesis and Antioxidant Activities of Novel Pyrimidine Acrylamides as Inhibitors of Lipoxygenase: Molecular Modeling and In Silico Physicochemical Studies” (Molecules, 2024)
